Data taken from the NIST ThermoML archive (doi:10.1016/j.fluid.2007.05.029).

Experiments:
[1] = xn = mol fraction of the nth substance listed

OCCCCCCO [1,6-hexanediol] + O
surface tension liquid-gas [mN/m], [1]
Conditions	283.15 K	288.15 K	293.15 K	298.15 K	303.15 K	308.15 K
x1 = 0.0013	63.8	63.1	62.3	62	61.1	60.6
x1 = 0.0017	62.5	61.8	61.2	60.4	59.7	58.8
x1 = 0.0021	61.5	60.7	60.3	59.4	58.5	57.6
x1 = 0.0029	60	59.2	58.6	57.5	56.8	56
x1 = 0.0057	56.9	55.7	55	53.8	53.3	52.4
x1 = 0.007	55.1	54.3	53.4	52.1	51.7	50.9
x1 = 0.0089	53.3	52.4	51.4	50.2	50	49.4
x1 = 0.014	50.6	49.4	49.1	48.3	48.3	47.2
x1 = 0.0159	49.4	48.6	48	47.5	47	46.6
x1 = 0.0237	48.5	47.6	47	46.5	46.1	45.8
x1 = 0.0373	46.1	45.7	45.4	45	44.5	44.2
x1 = 0.0463	44.4	44.1	43.9	43.6	43.3	43
x1 = 0.0545	43.7	43.4	43.2	42.9	42.5	42.2
x1 = 0.0742	43.5	43.3	43	42.8	42.4	42.1
x1 = 0.098	43.4	43.1	42.9	42.7	42.4	42.1
x1 = 0.1165	43.4	43.1	42.8	42.6	42.3	42

CC(O)CCC(C)O (stereo not drawn) [2,5-hexanediol]
Conditions	surface tension liquid-gas [mN/m]
283.15 K	32.3
288.15 K	32
293.15 K	31.9
298.15 K	31.6
303.15 K	31.3
308.15 K	31

CC(O)CCC(C)O (stereo not drawn) [2,5-hexanediol] + O
surface tension liquid-gas [mN/m], [1]
Conditions	283.15 K	288.15 K	293.15 K	298.15 K	303.15 K	308.15 K
x1 = 0.001	68.5	67.9	67.7	67.2	66.6	65.9
x1 = 0.0027	60.2	59.6	59.1	58.6	57.9	57.3
x1 = 0.0037	56.9	56.3	55.6	55.2	54.7	54.2
x1 = 0.0068	53.5	52.9	52.3	51.6	51.2	50.7
x1 = 0.0088	51.6	51	50.3	49.5	48.6	48
x1 = 0.0103	50	49.4	49.2	48.7	48.2	47.8
x1 = 0.0135	47.9	47.5	47.2	46.8	46.3	45.8
x1 = 0.0168	46.1	45.7	45.5	45.2	44.9	44.6
x1 = 0.0263	43.4	43.2	42.7	42.1	41.6	41.3
x1 = 0.037	41.5	41.1	40.4	40	39.7	39.2
x1 = 0.0462	40.4	40.1	39.7	39	38.7	38.2
x1 = 0.063	39.1	38.6	38.1	37.4	37.1	36.6
x1 = 0.0808	38.5	38	37.5	37	36.5	36.2
x1 = 0.096	38.3	37.8	37.3	36.8	36.3	36
x1 = 0.1117	37.7	37.2	36.9	36.2	35.9	35.6
x1 = 1	32.3	32	31.9	31.6	31.3	31

O [water]
Conditions	surface tension liquid-gas [mN/m]
283.15 K	74.1
288.15 K	73.4
293.15 K	72.6
298.15 K	71.8
303.15 K	71
308.15 K	70.2

O [water] + CC(O)CCC(C)O
[1], x2 = 0
Conditions	surface tension liquid-gas [mN/m]
283.15 K	74.1
288.15 K	73.4
293.15 K	72.6
298.15 K	71.8
303.15 K	71
308.15 K	70.2

O [water] + CC(O)CCCCO
[1], x2 = 0
Conditions	surface tension liquid-gas [mN/m]
283.15 K	74.1
288.15 K	73.4
293.15 K	72.6
298.15 K	71.8
303.15 K	71
308.15 K	70.2

O [water] + CCCCC(O)CO
[1], x2 = 0
Conditions	surface tension liquid-gas [mN/m]
283.15 K	74.1
288.15 K	73.4
293.15 K	72.6
298.15 K	71.8
303.15 K	71
308.15 K	70.2

O [water] + OCCCCCCO
[1], x2 = 0
Conditions	surface tension liquid-gas [mN/m]
283.15 K	74.1
288.15 K	73.4
293.15 K	72.6
298.15 K	71.8
303.15 K	71
308.15 K	70.2
